Test results as given in ChEMBL document CHEMBL1671625, “Comparative in vitro anti-hepatitis C virus activities of a selected series of polymerase, protease, and helicase inhibitors” (Antimicrob Agents Chemother, 2008).

Key:
[1] = Cytotoxicity against human HuH6 cells after 3 days by MTT assay; type: cell-based
[2] = Cytotoxicity against human Huh-9-13 cells after 3 days by MTT assay; type: cell-based
[3] = Cytotoxicity against human Huh-Mono cells after 3 days by MTT assay; type: cell-based
Hepatitis C virus [4] = assay: Antiviral activity against Hepatitis C virus genotype 1b infected in human Huh5-2 cells assessed as reduction in replicon RNA after 4 days by luciferase assay; type: functional, organism-based, Hepacivirus hominis; details: Huh-5-2, 96 h
Hepatitis C virus [5] = assay: Antiviral activity against Hepatitis C virus genotype 1b infected in human Huh-9-13 cells assessed as reduction in replicon RNA after 4days by RT-qPCR analysis; type: functional, organism-based, Hepacivirus hominis; details: 96 h
Hepatitis C virus [6] = assay: Antiviral activity against Hepatitis C virus genotype 1b infected in human HuH6 cells assessed as reduction in replicon RNA after 4days by RT-qPCR analysis; type: functional, organism-based, Hepacivirus hominis; details: HuH-6, 96 h
Hepatitis C virus [7] = assay: Antiviral activity against Hepatitis C virus genotype 1b infected in human Huh-Mono cells assessed as reduction in replicon RNA after 4 days by RT-qPCR analysis; type: functional, organism-based, Hepacivirus hominis; details: 96 h
[8] = Cytotoxicity against human Huh5-2 cells after 3 days by MTT assay; type: cell-based, Huh-5-2

Structure (SMILES)	CC50 at 72 h [1] [nM]	CC50 at 72 h [2] [nM]	CC50 at 72 h [3] [nM]	EC50 (Hepatitis C virus [4]) [nM]	EC50 (Hepatitis C virus [5]) [nM]	EC50 (Hepatitis C virus [6]) [nM]	EC50 (Hepatitis C virus [7]) [nM]	CC50 at 72 h [8] [nM]
C[C@@]1(F)[C@H](O)[C@@H](CO)O[C@@H]1n1ccc(N)nc1=O	> 33000	> 33000	> 33000	2100	1700	1100	5000	> 33000
O=C(O)CNc1ccc(-c2ccc(Cl)cc2)c(COc2ccc(-c3nc4cc(C(=O)O)ccc4n3C3CCCCC3)cc2)c1	21000	24000	24000	1100	1500	1200	800	21500
CC(C)CCn1c(=O)c(C2=NS(=O)(=O)c3ccccc3N2)c(O)c2ccccc21	> 33000	> 33000	> 33000	1800	600	11300	1800	> 33000
CCC[C@H](NC(=O)[C@@H]1[C@H]2CCC[C@H]2CN1C(=O)[C@@H](NC(=O)[C@@H](NC(=O)c1cnccn1)C1CCCCC1)C(C)(C)C)C(=O)C(=O)NC1CC1	25000	24000	> 33000	1000	600	1000	1000	> 33000
COc1ccc2c(O[C@@H]3C[C@H]4C(=O)N[C@]5(C(=O)O)C[C@H]5/C=C\CCCCC[C@H](NC(=O)OC5CCCC5)C(=O)N4C3)cc(-c3csc(NC(C)C)n3)nc2c1	> 3000	> 3000	> 3000	40	15	4	10	> 3000
C[C@@]1(O)[C@H](O)[C@@H](CO)O[C@H]1n1ccc(N)nc1=O	> 33000	25000	> 33000	2000	400	700	700	> 33000
OC[C@H]1O[C@@H](n2nnc3cc(Cl)c(Cl)cc32)[C@H](O)[C@@H]1O	> 100000	> 100000	> 100000	10000	34000	12000	53000	> 100000
C[C@@]1(O)[C@H](O)[C@@H](CO)O[C@H]1n1cnc2c(N)ncnc21	> 33000	21000	> 33000	120	400	290	1700	> 33000
[N-]=[N+]=N[C@]1(CO)O[C@@H](n2ccc(N)nc2=O)[C@H](O)[C@@H]1O [4'-AZIDOCYTIDINE]	> 33000	> 33000	> 33000	1400	1600	6000	2200	> 33000
C/C=C/C[C@@H](C)[C@@H](O)[C@H]1C(=O)N[C@@H](CC)C(=O)N(C)[C@H](C)C(=O)N(CC)[C@@H](C(C)C)C(=O)N[C@@H](C(C)C)C(=O)N(C)[C@@H](CC(C)C)C(=O)N[C@@H](C)C(=O)N[C@H](C)C(=O)N(C)[C@@H](CC(C)C)C(=O)N(C)[C@@H](CC(C)C)C(=O)N(C)[C@@H](C(C)C)C(=O)N1C [ALISPORIVIR]	> 3000	> 3000	> 3000	60	–	50	40	> 3000
CC(C)(C)NC(=O)N[C@H](C(=O)N1C[C@H]2[C@@H]([C@H]1C(=O)NC(CC1CCC1)C(=O)C(N)=O)C2(C)C)C(C)(C)C (some centres undefined) [BOCEPREVIR]	> 33000	> 33000	> 33000	–	130	–	2000	> 33000
C/C=C/C[C@@H](C)[C@@H](O)[C@H]1C(=O)N[C@@H](CC)C(=O)N(C)CC(=O)N(C)[C@@H](CC(C)C)C(=O)N[C@@H](C(C)C)C(=O)N(C)[C@@H](CC(C)C)C(=O)N[C@@H](C)C(=O)N[C@H](C)C(=O)N(C)[C@@H](CC(C)C)C(=O)N(C)[C@@H](CC(C)C)C(=O)N(C)[C@@H](C(C)C)C(=O)N1C [CYCLOSPORINE]	–	–	–	300	500	240	300	–
CNC(=O)c1c(-c2ccc(F)cc2)oc2cc(N(CCO)S(C)(=O)=O)c(C3CC3)cc12 [NESBUVIR]	> 33000	> 33000	> 33000	19	30	20	4	> 33000
Brc1c(Br)c(Br)c2[nH]nnc2c1Br [TETRABROMOBENZOTRIAZOLE]	> 100000	> 100000	> 100000	40000	65000	43000	61000	> 100000
O=C(O)c1cccs1 [THIOPHENE CARBOXYLIC ACID]	> 33000	> 33000	> 33000	–	–	–	–	> 33000
